Experiments:
Assay type in all cases: cell-based
LNCaP = experiment: Cell growth inhibition assay, prostate cancer cell line LNCaP (medium with 10 ng/mL IL-6); conditions: Homo sapiens, medium supplemented with 10 ng/mL of IL-6, 10,000 cells/well
MDA-MB-231 = experiment: Cell growth inhibition assay, breast cancer cell line MDA-MB-231; conditions: Homo sapiens; MDA-MB-231 breast cancer cell line, 5,000 cells/well
STAT3 = molecular target: T1, STAT3 (Homo sapiens, UniProt P40763); experiment: STAT3 reporter gene assay (luciferase), LNCaP stable cell line (pSTAT3-TA-luc), IL-6 stimulation
T1 construct: plasmid pSTAT3-TA-luc), which contains a stably operating STAT3 promoter; endogenous in cells
Method in brief: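 LNCaP cells stably carrying pSTAT3-TA-luc, in RPMI1640 with 3% DCC-FBS, were treated with compound and then stimulated with 10 ng/mL IL-6 for 24–48 h at 37 °C. Luciferase activity was measured in lysates. A parallel plate measured viability by CellTiter-Glo, with stimulated 0.1% DMSO wells as the positive control.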

T1 sequence (P40763 whole entry): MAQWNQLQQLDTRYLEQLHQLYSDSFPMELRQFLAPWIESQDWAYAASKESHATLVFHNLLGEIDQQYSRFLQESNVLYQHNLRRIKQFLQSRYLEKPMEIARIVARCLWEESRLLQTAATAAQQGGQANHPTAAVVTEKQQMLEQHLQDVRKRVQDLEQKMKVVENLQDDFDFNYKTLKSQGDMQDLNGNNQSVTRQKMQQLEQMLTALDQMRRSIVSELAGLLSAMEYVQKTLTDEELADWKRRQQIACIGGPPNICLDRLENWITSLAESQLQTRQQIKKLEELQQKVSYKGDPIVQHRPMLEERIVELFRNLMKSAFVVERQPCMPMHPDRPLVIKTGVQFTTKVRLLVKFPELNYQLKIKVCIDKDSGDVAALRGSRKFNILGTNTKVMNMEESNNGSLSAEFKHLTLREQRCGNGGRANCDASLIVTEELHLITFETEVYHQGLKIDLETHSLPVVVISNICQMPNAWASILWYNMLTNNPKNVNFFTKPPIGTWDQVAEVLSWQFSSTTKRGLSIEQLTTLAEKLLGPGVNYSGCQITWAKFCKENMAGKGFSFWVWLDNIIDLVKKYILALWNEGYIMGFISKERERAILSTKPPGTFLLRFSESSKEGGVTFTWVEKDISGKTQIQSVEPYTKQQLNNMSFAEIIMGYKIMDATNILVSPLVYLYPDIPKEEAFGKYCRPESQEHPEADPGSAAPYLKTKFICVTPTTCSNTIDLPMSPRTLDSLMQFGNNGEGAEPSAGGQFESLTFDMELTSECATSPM

Row | Compound | IC50 (LNCaP) | IC50 (MDA-MB-231) | IC50 (STAT3)
1 | CS(=O)(=O)Nc1ccc2cc(C(=O)Nc3cc(-c4ccc(F)cc4F)cc(N4CCCCC4)c3)[nH]c2c1 [Example 371, N-(2′,4′-difluoro-5-(piperidin-1-yl)-[1,1′-biphenyl]-3-yl)-6-(methylsulfonamido)-1H-indole-2-carboxamide] | 7.8 µM | 1.4 µM | 0.9 µM
2 | CS(=O)(=O)Nc1ccc2cc(C(=O)Nc3cc(OC(F)F)cc(C4(c5ccc(F)cc5)CC4)c3)[nH]c2c1 [Example 428, N-(3-(difluoromethoxy)-5-(1-(4-fluorophenyl)cyclopropyl)phenyl)-6-(methylsulfonamido)-1H-indole-2-carboxamide] | 1.4 µM | 0.39 µM | 1 µM
3 | CS(=O)(=O)Nc1ccc2oc(C(=O)Nc3cccc(-c4ccc(F)cc4F)c3)cc2c1 [Example 238, N-(2′,4′-difluoro-[1,1′-biphenyl]-3-yl)-5-(methylsulfonamido)benzofuran-2-carboxamide] | 2.4 µM | 0.55 µM | 0.27 µM
4 | CS(=O)(=O)Nc1ccc2cc(C(=O)Nc3cc(C(=O)N4CCCCC4)cc(-c4ccc(F)cc4F)c3)[nH]c2c1 [Example 320, N-(2′,4′-difluoro-5-(piperidine-1-carbonyl)-[1,1′-biphenyl]-3-yl)-6-(methylsulfonamido)-1H-indole-2-carboxamide] | > 10 µM | > 10 µM | 6.2 µM
5 | C=C(c1ccccc1)c1cccc(NC(=O)c2cc3cc(NS(C)(=O)=O)ccc3s2)c1 [Example 423, 5-(methylsulfonamido)-N-(3-(1-phenylvinyl)phenyl)benzo[b]thiophene-2-carboxamide] | 1.1 µM | 0.094 µM | 0.26 µM
6 | CS(=O)(=O)Nc1ccc2cc(C(=O)Nc3cc(-c4ccc(O)nc4)cc(-c4ccc(F)cc4F)c3)[nH]c2c1 [Example 364, N-(2′,4′-difluoro-5-(6-hydroxypyridin-3-yl)-[1,1′-biphenyl]-3-yl)-6-(methylsulfonamido)-1H-indole-2-carboxamide] | > 10 µM | > 10 µM | > 10 µM
7 | CC(C)(C)OC(=O)n1cccc1-c1cc(NC(=O)c2cc3ccc(NS(C)(=O)=O)cc3[nH]2)cc(-c2ccc(F)cc2F)c1 [Example 350, tert-butyl 2-(2′,4′-difluoro-5-(6-(methylsulfonamido)-1H-indole-2-carboxamido)-[1,1′-biphenyl]-3-yl)-1H-pyrrole-1-carboxylate] | 6.5 µM | 2.3 µM | 1.5 µM
8 | Cc1c(C(=O)Nc2cc(Br)cc(-c3ccc(F)cc3F)c2)sc2ccc(NS(C)(=O)=O)cc12 [Example 311, N-(5-bromo-2′,4′-difluoro-[1,1′-biphenyl]-3-yl)-3-methyl-5-(methylsulfonamido)benzo[b]thiophene-2-carboxamide] | 6.7 µM | 1 µM | 5.7 µM
9 | C#Cc1cc(NC(=O)c2cc3cc(NS(C)(=O)=O)ccc3s2)cc(C(C)(C)c2ccc(F)cc2F)c1 [Example 109, N-(3-(2-(2,4-difluorophenyl)propan-2-yl)-5-ethynylphenyl)-5-(methylsulfonamido)benzo[b]thiophene-2-carboxamide] | 0.42 µM | 0.09 µM | 0.078 µM
10 | CC(C)(c1cccc(NC(=O)c2cc3ccc(NS(C)(=O)=O)cc3[nH]2)c1)c1ccccc1F [Example 7, N-(3-(2-(2-fluorophenyl)propan-2-yl)phenyl)-6-(methylsulfonamido)-1H-indole-2-carboxamide] | 2.4 µM | 0.35 µM | 0.31 µM
11 | CS(=O)(=O)Nc1ccc2cc(C(=O)Nc3cc(-c4cccnc4)cc(-c4ccc(F)cc4F)c3)[nH]c2c1 [Example 357, N-(2′,4′-difluoro-5-(pyridin-3-yl)-[1,1′-biphenyl]-3-yl)-6-(methylsulfonamido)-1H-indole-2-carboxamide] | 6.6 µM | 1.2 µM | 1.7 µM
12 | CS(=O)(=O)Nc1ccc2cc(C(=O)Nc3cc(-c4ccc(F)cc4F)c4cn[nH]c4c3)[nH]c2c1 [Example 246, N-(4-(2,4-difluorophenyl)-1H-indazol-6-yl)-6-(methylsulfonamido)-1H-indole-2-carboxamide] | 9.2 µM | 3.5 µM | 8.4 µM
13 | CC(C)(c1ccc(F)cc1)c1cccc(NC(=O)c2cc3ccc(NS(C)(=O)=O)cc3[nH]2)c1 [Example 1, N-(3-(2-(4-fluorophenyl)propan-2-yl)phenyl)-6-(methylsulfonamido)-1H-indole-2-carboxamide] | 2.5 µM | 0.23 µM | 0.19 µM
14 | COc1cc2cc(C(=O)Nc3cc(Br)cc(-c4ccc(F)cc4F)c3)[nH]c2cc1NS(C)(=O)=O [Example 303, N-(5-bromo-2′,4′-difluoro-[1,1′-biphenyl]-3-yl)-5-methoxy-6-(methylsulfonamido)-1H-indole-2-carboxamide] | 0.72 µM | 0.02 µM | 0.23 µM
15 | CCC(CC)(c1ccc(F)cc1)c1cc(Br)cc(NC(=O)c2cc3cc(NS(C)(=O)=O)ccc3s2)c1 [Example 53, N-(3-bromo-5-(3-(4-fluorophenyl)pentan-3-yl)phenyl)-5-(methylsulfonamido)benzo[b]thiophene-2-carboxamide] | 0.07 µM | 0.022 µM | 0.026 µM
16 | CC(C)(c1ccc(F)cc1)c1cc(NC(=O)c2cc3cc(NS(C)(=O)=O)ccc3s2)cc(OC(F)F)c1 [Example 39, N-(3-(difluoromethoxy)-5-(2-(4-fluorophenyl)propan-2-yl)phenyl)-5-(methylsulfonamido)benzo[b]thiophene-2-carboxamide] | 0.22 µM | 0.05 µM | 0.048 µM
17 | CS(=O)(=O)Nc1ccc2sc(C(=O)Nc3cccc(-c4ccc(F)cc4F)c3)cc2c1 [Example 237, N-(2′,4′-difluoro-[1,1′-biphenyl]-3-yl)-5-(methylsulfonamido)benzo[b]thiophene-2-carboxamide] | 0.61 µM | 0.01 µM | 0.11 µM
18 | COc1cc(OC(F)(F)F)cc(C(C)c2cccc(NC(=O)c3cc4ccc(NS(C)(=O)=O)cc4[nH]3)c2)c1 (stereo not drawn) [Example 10, N-(3-(1-(3-methoxy-5-(trifluoromethoxy)phenyl)ethyl)phenyl)-6-(methylsulfonamido)-1H-indole-2-carboxamide] | 1.7 µM | 0.18 µM | 0.43 µM
19 | CC(C)(c1ccc(F)cc1)c1cc(Br)cc(NC(=O)c2cc3ccc(NS(C)(=O)=O)cc3[nH]2)c1 [Example 14, N-(3-bromo-5-(2-(4-fluorophenyl)propan-2-yl)phenyl)-6-(methylsulfonamido)-1H-indole-2-carboxamide] | 0.55 µM | 0.062 µM | 0.13 µM
20 | Cc1c(C(=O)Nc2cccc(-c3ccc(F)cc3F)c2)sc2cc(NS(C)(=O)=O)ccc12 [Example 241, N-(2′,4′-difluoro-[1,1′-biphenyl]-3-yl)-3-methyl-6-(methylsulfonamido)benzo[b]thiophene-2-carboxamide] | 5.4 µM | 2.7 µM | 1.8 µM
21 | CC(C)(c1cccc(CN2CCNCC2)c1)c1cc(Br)cc(NC(=O)c2cc3cc(NS(C)(=O)=O)ccc3s2)c1 [Example 118, N-(3-bromo-5-(2-(3-(piperazin-1-ylmethyl)phenyl)propan-2-yl)phenyl)-5-(methylsulfonamido) benzo[b]thiophene-2-carboxamide] | > 10 µM | 8.6 µM | > 10 µM
22 | CS(=O)(=O)Nc1ccc2cc(C(=O)Nc3cc(-c4ccc(C(F)(F)F)nc4)cc(-c4ccc(F)cc4F)c3)[nH]c2c1 [Example 358, N-(2′,4′-difluoro-5-(6-(trifluoromethyl)pyridin-3-yl)-[1,1′-biphenyl]-3-yl)-6-(methylsulfonamido)-1H-indole-2-carboxamide] | 8 µM | 1.2 µM | 1.7 µM
23 | C#Cc1cc(NC(=O)c2cc3ccc(NS(C)(=O)=O)cc3[nH]2)cc(-c2ccc(F)cc2F)c1 [Example 365, N-(5-ethynyl-2′,4′-difluoro-[1,1′-biphenyl]-3-yl)-6-(methylsulfonamido)-1H-indole-2-carboxamide] | 2.8 µM | 0.32 µM | 0.4 µM
24 | CS(=O)(=O)Nc1ccc2cc(C(=O)Nc3cc(-c4ccc(F)cc4F)cc(C(F)(F)F)c3)[nH]c2c1 [Example 313, N-(2′,4′-difluoro-5-(trifluoromethyl)-[1,1′-biphenyl]-3-yl)-6-(methylsulfonamido)-1H-indole-2-carboxamide] | 3.7 µM | 0.14 µM | 3.6 µM
25 | CS(=O)(=O)Nc1ccc2cc(C(=O)Nc3cccc(C4(c5ccc(F)cc5)CC4)c3)[nH]c2c1 [Example 425, N-(3-(1-(4-fluorophenyl)cyclopropyl)phenyl)-6-(methylsulfonamido)-1H-indole-2-carboxamide] | 1.3 µM | 0.38 µM | 0.46 µM
26 | CC(C)(c1cc(Br)cc(NC(=O)c2cc3cc(NS(C)(=O)=O)ccc3s2)c1)c1cccc(OC(F)F)c1 [Example 46, N-(3-bromo-5-(2-(3-(difluoromethoxy)phenyl)propan-2-yl)phenyl)-5-(methylsulfonamido)benzo[b]thiophene-2-carboxamide] | 0.13 µM | 0.029 µM | 0.082 µM

— US10562912B2 (C&C Research Laboratories, priority 2013, dated 2020)
